This note sets out measurements from patent publication US20160340286A1, “CLOSTRUBINS” (LEIBNIZ-INSTITUT FÜR NATURSTOFF-FORSCHUNG UND …, priority 2014, published 2016).

In brackets after ≈: the same amount, converted by molar mass. Like-named read-outs stand apart in the source and are kept apart here.

Holding throughout (format): cell-based
Data set [1] relates to vancomycin-resistant enterococci (VRE). Kind of data set: standardized antibiotic assay, MIC, VRE. To be noted: Enterococcus. As for the experimental part: (§1) The activity and more specifically the bioactivity of the compounds according to the present invention can be assessed using appropriate assays known to those skilled in the art, e.g. in vitro or in vivo assays. For instance, the antimicrobial activity may be determined using a standardized antibiotic assay^[1], and the antiproliferative and/or cytotoxic activity may be determined via a standardized assay as described in reference.
(§2) The antibiotic activity of clostrubin A was tested using a standardized antibiotic assay^[1]. […]. A similar antimicrobial activity as against MRSA was observed against Mycobacterium smegmatis (M smegmatis), Mycobacterium aurum (M aurum), Mycobacterium vaccae (M vaccae) and Mycobacterium fortuitum (M fortuitum)—see, Table 3.

For a further data set, the system named is Bs. Kind of data set: standardized antibiotic assay, MIC, Bs. On the procedure:
as §1, §2

The next data set has as its system Escherichia coli. Kind of data set: standardized antibiotic assay, MIC, Ec. Particulars: for MIC: Escherichia coli (Gram-negative). On the procedure:
as §1, §2

For the next data set, the system named is Mycobacterium fortuitum. In words: anti-mycobacterial activity, MIC. To be noted: Mycolicibacterium fortuitum. On the procedure: as §1, §2
Another data set concerns Mycobacterium smegmatis. In words: anti-mycobacterial activity, MIC. To be noted: Mycolicibacterium smegmatis. As for the experimental part:
as §1, §2

A further data set has as its system Mycobacterium vaccae. In words: anti-mycobacterial activity, MIC. To be noted: Mycolicibacterium vaccae. On the procedure:
as §1, §2

The test system of the next data set is Mycobacterium aurum. Kind of data set: anti-mycobacterial activity, MIC. Particulars: Mycolicibacterium aurum. As for the experimental part:
as §1, §2

The test system of data set [2] is methicillin-resistant Staphylococcus aureus (MRSA). Kind of data set: standardized antibiotic assay, MIC, MRSA. On the procedure:
as §1, §2

Another data set relates to Bacillus pumilus. In words: microbe, parasite or virus in culture. To be noted: potato soft rot pathogen. As for the experimental part:
(§3) The antimicrobial activity of clostrubin A (1) and clostrubin B (2) against the serious potato pathogens Bacillus pumilus (causing potato soft rot), Clavibacter michiganensis ssp. sepedonicus (causing potato ring rot), and Streptomyces scabies (causing potato scab) was tested.

The subject of a further data set is Streptomyces scabies. In words: microbe, parasite or virus in culture. Particulars: Streptomyces scabiei; potato scab pathogen. As for the experimental part:
as §3

For data set [3], the system named is Clavibacter michiganensis ssp. sepedonicus. Kind of data set: activity against potato pathogens, MIC. To be noted: read-out: MIC Clavibacter michiganensis ssp. sepedonicus.
The nature of data set [4]: cytotoxicity, standardized assay. To be noted: human, HeLa cells.
Excerpt: as §1
(§4) Antiproliferative and cytotoxic activity of clostrubin A was tested in a standardized assay^[2].

The test system of another data set is HeLa. In words: cytotoxicity, standardized assay. To be noted: summary of Table 4 (HeLa).
Excerpt: as §1, §4

In another data set the test system is K-562. In words: antiproliferative effect, standardized assay. To be noted: Homo sapiens, K562.
Excerpt: as §1, §4

For the next data set, the system named is HUVEC. In words: antiproliferative effect, standardized assay.
Excerpt: as §1, §4

`O=C(O)c1cn(C2CC2)c2cc(N3CCNCC3)c(F)cc2c1=O` [Cip, ciprofloxacin, reference compound]: the MIC turned out to be 2.3 µM in [1] (read-out: MIC VRE); 0.08 µM (≈ 0.0265 µg/mL) in the data set with Bs; 0.01 µM (≈ 0.00331 µg/mL) with Escherichia coli; 0.6 µM (≈ 0.199 µg/mL) in the data set with Mycobacterium fortuitum; 4.71 µM (≈ 1.56 µg/mL) against Mycobacterium smegmatis; 1.2 µM (≈ 0.398 µg/mL) against Mycobacterium vaccae. The results for the MIC (in the data set on Mycobacterium aurum; in data set [2] (read-out: MIC MRSA)) were 0.3 µM (≈ 0.0994 µg/mL) and 37 µM, respectively.

Turning to `COCC(O)C(O)C(O)C(=O)c1c(C)cc2c(c1O)C(=O)c1c(O)cc(C)c3c1c-2c(O)c1c(O)c(C(C)=O)ccc13` (stereo not drawn) [Compound 2, clostrubin B], the results for the MIC (in the data set with Bacillus pumilus; in the data set on Streptomyces scabies; in [3]) were 0.542 µM (≈ 0.312 µg/mL), 0.271 µM (≈ 0.156 µg/mL) and 0.542 µM (≈ 0.312 µg/mL), respectively.

For `CC(=O)c1ccc2c(c1O)c(O)c1c3c(c(O)cc(C)c32)C(=O)c2c(O)cc(C)cc2-1` [Compound 1, clostrubin A], the CC50 – broadly, the concentration at which the toxic effect on the cells reaches its halfway point – in data set [4] came out at 1690 nM. For the same compound, in the data set with HeLa, the “cytotoxic activity (in words)” value is given as “moderate”. In addition, the MIC was 0.97 µM in data set [1] (read-out: MIC VRE); 0.4 µg/mL in data set [1] (read-out: minimum inhibitory concentration (MIC) VRE); 0.075 µM (≈ 0.0311 µg/mL) against Bs; greater than 60 µM with Escherichia coli; 0.12 µM (≈ 0.0497 µg/mL) in the data set with Mycobacterium fortuitum; 0.48 µM (≈ 0.199 µg/mL) against Mycobacterium smegmatis. In addition, the MIC against Mycobacterium vaccae was found to be 0.12 µM (≈ 0.0497 µg/mL); in the data set on Mycobacterium aurum, 0.12 µM (≈ 0.0497 µg/mL); in [2] (read-out: MIC MRSA) it was 0.12 µM; in data set [2] (read-out: minimum inhibitory concentration (MIC) MRSA), 0.05 µg/mL; in the data set on Bacillus pumilus, 0.047 µM (≈ 0.0195 µg/mL); in the data set on Streptomyces scabies, 0.0947 µM (≈ 0.0392 µg/mL). Besides, the MIC in data set [3] was 0.0947 µM (≈ 0.0392 µg/mL). In addition, the 50% growth inhibitory concentration (GI50) (in general, the concentration at which growth is held to half of that of the control) in the data set on K-562 was 2660 nM; with HUVEC (Homo sapiens, HUVEC), 1200 nM. The “antiproliferative activity (in words)” value in the data set with HUVEC (summary of Table 4 (HUVEC, K-562)) is listed as “moderate”. For the same compound, the “antibiotic activity against Escherichia coli (in words)” value with Escherichia coli (Gram-negative organism) is given as “ineffective”.
